The values below come from paper PMC11729428, “New Potent Inhibitor of Transforming Growth Factor-Beta (TGFβ) Signaling that is Efficacious against Microsatellite Stable Colorectal Cancer Metastasis in Combination with Immune Checkpoint Therapy in Mice” (ACS Pharmacology & Translational Science, 2024).

pKd: −log10 of the molar value. Where two headings read alike, the source gives them in different places. Where only a bound is given, the exact number is not on record here.

Data set [1] can be described thus: Literature oral pharmacokinetics in mice. It counts as in vivo. The following applies: female, mouse, plasma, mice (♀ CD-1), 75 mg/kg, estimated using AUClast of ref 20. From the text:
Table 2 Pharmacokinetics of HYL001 in Preclinical Species after Oral Administration ^a | column: Cl/F (mL/min/kg)

In data set [2] the test system is mouse tumor organoids (MTOs), CRC liver metastases. Set-up: method as in PMID 29443964. The settings on record: murine CRC liver metastasis model ref 5; cited from earlier work.
Data set [3] has as its target T1, ALK1 (ACVRL1) (Homo sapiens, UniProt P37023).
T1 construct: purchased Eurofins/DiscoveryX (KINOMEscan service)
The arrangement: method as in earlier work. The following applies: reported data ref 15; read-out: Binding constant (Kd) ALK1 (ACVRL1); cited from earlier work.

In data set [4] the target is T2, ALK3 (BMPR1A) (Homo sapiens, UniProt P36894).
T2 construct: purchased Eurofins/DiscoveryX (KINOMEscan service)
T2 sequence (P36894 24-532): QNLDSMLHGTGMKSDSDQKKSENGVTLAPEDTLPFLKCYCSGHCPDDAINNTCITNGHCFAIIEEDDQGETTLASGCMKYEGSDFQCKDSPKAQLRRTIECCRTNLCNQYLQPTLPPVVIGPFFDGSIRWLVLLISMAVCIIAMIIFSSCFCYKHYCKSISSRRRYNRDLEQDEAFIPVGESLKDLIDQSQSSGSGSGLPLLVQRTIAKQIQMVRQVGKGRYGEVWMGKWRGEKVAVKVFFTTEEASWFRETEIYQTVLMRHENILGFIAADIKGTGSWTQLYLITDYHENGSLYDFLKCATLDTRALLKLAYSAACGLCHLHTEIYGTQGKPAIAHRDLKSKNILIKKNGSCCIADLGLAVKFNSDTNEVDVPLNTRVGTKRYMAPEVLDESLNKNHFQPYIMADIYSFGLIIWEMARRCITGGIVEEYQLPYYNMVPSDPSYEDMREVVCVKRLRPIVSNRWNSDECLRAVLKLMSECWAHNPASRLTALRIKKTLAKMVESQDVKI
Set-up: method as in earlier work. The following applies: reported data ref 15; read-out: Binding constant (Kd) ALK3 (BMPR1A); cited from earlier work.

A further data set has as its target T3, ALK4 (ACVR1B) (Homo sapiens, UniProt P36896).
T3 sequence (P36896 24-505): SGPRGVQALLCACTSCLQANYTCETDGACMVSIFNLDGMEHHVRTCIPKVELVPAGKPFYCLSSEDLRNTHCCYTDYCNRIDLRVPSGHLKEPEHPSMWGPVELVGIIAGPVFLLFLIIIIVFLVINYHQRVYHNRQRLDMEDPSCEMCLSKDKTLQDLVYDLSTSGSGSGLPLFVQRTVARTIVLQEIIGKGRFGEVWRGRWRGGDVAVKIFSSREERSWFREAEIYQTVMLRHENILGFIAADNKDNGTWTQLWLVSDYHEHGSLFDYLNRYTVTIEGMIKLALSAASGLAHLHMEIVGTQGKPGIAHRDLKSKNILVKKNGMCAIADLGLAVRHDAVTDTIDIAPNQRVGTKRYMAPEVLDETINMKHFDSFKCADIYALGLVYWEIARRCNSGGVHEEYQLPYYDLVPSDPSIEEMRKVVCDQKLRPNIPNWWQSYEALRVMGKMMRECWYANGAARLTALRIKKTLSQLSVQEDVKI
The following applies: reported data ref 15, read-out: Binding constant (Kd) ALK4 (ACVR1B), cited from earlier work.

A further data set deals with T4, ALK6 (BMPR1B) (Homo sapiens, UniProt O00238).
T4 construct: purchased Eurofins/DiscoveryX (KINOMEscan service)
T4 sequence (O00238 14-502): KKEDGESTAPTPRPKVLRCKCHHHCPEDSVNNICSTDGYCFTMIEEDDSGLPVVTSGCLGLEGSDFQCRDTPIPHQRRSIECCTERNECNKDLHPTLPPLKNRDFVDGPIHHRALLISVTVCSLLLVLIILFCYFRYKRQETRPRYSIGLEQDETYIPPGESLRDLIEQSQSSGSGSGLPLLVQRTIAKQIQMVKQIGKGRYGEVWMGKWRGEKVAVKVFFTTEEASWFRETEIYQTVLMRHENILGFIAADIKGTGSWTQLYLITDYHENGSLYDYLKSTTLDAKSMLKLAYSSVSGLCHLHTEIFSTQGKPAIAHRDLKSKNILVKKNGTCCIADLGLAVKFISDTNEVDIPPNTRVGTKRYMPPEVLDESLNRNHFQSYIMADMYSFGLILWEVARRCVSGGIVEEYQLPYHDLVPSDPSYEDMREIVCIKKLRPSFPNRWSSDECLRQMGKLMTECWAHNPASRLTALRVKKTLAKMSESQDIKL
Set-up: method as in earlier work. The following applies: reported data ref 15; read-out: Binding constant (Kd) ALK6 (BMPR1B); cited from earlier work.

Data set [5] addresses T5, ACVR2B (Homo sapiens, UniProt Q13705).
T5 construct: purchased Eurofins/DiscoveryX (KINOMEscan service)
The arrangement: method as in earlier work. The settings on record: reported data ref 15; read-out: Binding constant (Kd) ACVR2B; cited from earlier work.

The target of the next data set is T6, TGFBR2 (Homo sapiens, UniProt P37173).
T6 construct: purchased Eurofins/DiscoveryX (KINOMEscan service)
T6 sequence (P37173 23-567): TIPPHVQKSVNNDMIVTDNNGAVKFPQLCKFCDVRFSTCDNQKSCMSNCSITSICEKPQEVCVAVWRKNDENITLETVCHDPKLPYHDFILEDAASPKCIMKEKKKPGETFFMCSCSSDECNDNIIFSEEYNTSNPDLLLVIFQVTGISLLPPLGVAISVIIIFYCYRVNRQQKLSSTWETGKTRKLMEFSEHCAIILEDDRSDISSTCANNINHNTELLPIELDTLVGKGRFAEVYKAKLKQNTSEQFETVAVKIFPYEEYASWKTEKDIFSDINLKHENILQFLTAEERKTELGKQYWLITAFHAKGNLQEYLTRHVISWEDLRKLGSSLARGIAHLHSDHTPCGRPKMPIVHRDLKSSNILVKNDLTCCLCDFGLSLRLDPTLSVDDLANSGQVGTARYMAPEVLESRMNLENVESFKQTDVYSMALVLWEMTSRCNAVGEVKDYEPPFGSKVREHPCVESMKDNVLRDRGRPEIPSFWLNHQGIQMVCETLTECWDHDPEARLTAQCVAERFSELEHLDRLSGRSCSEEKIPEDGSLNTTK
The arrangement: method as in earlier work. The settings on record: reported data ref 15; read-out: Binding constant (Kd) TGFBR2; cited from earlier work.

On the set-up of data set [6]: method as in PMID 24786585. The following applies: rats (♀ SD), oral, 10 mg/kg ref 18; cited from earlier work.
The target in data set [7] is T5, ACVR2B. Description: KINOMEscan competitive binding assay (Kd). The following applies: analyses herein; read-out: Binding constant (Kd) ACVR2B. From the text: (§1) 5. Methods for In vitro characterizations of HYL001
(§2) Kinase affinity and selectivity
(§3) Kd values were obtained by an 11 -point
(§4) (BMPR1A), ALK4 (ACVR1B), ALK6 (BMPR1B), ACVR2B and TGFβ R2. […]

For data set [8], the target named is T1, ALK1 (ACVRL1). As to the kind of experiment: KINOMEscan competitive binding assay (Kd). The settings on record: analyses herein; read-out: Binding constant (Kd) ALK1 (ACVRL1).
Source text: as §1, §2, §3, §4

The next data set addresses T7, ALK2 (ACVR1) (Homo sapiens, UniProt Q04771).
T7 construct: purchased Eurofins/DiscoveryX (KINOMEscan service)
Description: KINOMEscan competitive binding assay (Kd). The settings on record: analyses herein; read-out: Binding constant (Kd) ALK2 (ACVR1).
Source text: as §1, §2, §3, §4

Data set [9] has as its target T2, ALK3 (BMPR1A). As to the kind of experiment: KINOMEscan competitive binding assay (Kd). The following applies: analyses herein; read-out: Binding constant (Kd) ALK3 (BMPR1A).
Source text: as §1, §2, §3, §4

The subject of data set [10] is panel of key proteins (cell receptors, neurotransmitter transporters, and ion channels). Description: In vitro safety pharmacology, binding (SafetyScreen 44). The following applies: 10 μM HYL001. The method, then: (§5) To identify potential adverse off-target drug interactions and derisk the development of HYL001 as a drug,[22] we performed binding and enzymatic inhibition assays with a panel of key proteins (mainly cell receptors, neurotransmitter transporters, and ion channels). […]
(§6) analysis by LC-MS/MS, using MRM mode. […]
(§7) related to phase I and phase II metabolism, respectively.
(§8) The PARs were used for calculation of metabolic stability. The 0 min area ratio was considered as 100%. The […]
(§9) incubation volume / number of cells (in millions) x K e. To calculate into full body context, the values of 120 […]
(§10) In vitro safety pharmacology […]
(§11) compared with historical values determined at Eurofins. Binding was defined as the % inhibition of the signal […]
(§12) enzyme activity. […] Results showing
(§13) The tail current amplitude, induced by a one […]
(§14) and expressed as % inhibition.
(§15) The Ames test was performed at Xenomatrix (Allschwil, Switzerland). Bacteria from the S. typhimurium

Another data set concerns panel of enzymes. Description: In vitro safety pharmacology, enzymatic inhibition (SafetyScreen 44). It counts as biochemical. The settings on record: 10 μM HYL001. The procedure: as §5, §6, §7, §8, §9, §10, §11, §12, §13, §14, §15
The nature of data set [11]: Plasma pharmacokinetics after single oral administration in rats. The following applies: 71 mg/kg, rats (♂ SD). It counts as in vivo, Sprague Dawley rats. The method, then: We assessed the in vivo pharmacokinetic properties of HYL001 after a single oral administration (dose of 71 mg/kg) in BALB/c mice as well as in Sprague–Dawley (SD) Rats. Liquid chromatography–tandem mass spectrometry (LC/MS/MS) was used for the determination of HYL001 in plasma (Figure S2 and Table 2).
6. Methods for in vivo characterizations of HYL001
Similarly, three rats were used in this study. Animals were administered orally with a suspension formulation of […]

The target in a further data set is hERG potassium channel (Homo sapiens, UniProt Q12809). As to the kind of experiment: in vitro. The following applies: CHO-K1 cells (hERG current).
Sequence of hERG potassium channel (Q12809 whole entry): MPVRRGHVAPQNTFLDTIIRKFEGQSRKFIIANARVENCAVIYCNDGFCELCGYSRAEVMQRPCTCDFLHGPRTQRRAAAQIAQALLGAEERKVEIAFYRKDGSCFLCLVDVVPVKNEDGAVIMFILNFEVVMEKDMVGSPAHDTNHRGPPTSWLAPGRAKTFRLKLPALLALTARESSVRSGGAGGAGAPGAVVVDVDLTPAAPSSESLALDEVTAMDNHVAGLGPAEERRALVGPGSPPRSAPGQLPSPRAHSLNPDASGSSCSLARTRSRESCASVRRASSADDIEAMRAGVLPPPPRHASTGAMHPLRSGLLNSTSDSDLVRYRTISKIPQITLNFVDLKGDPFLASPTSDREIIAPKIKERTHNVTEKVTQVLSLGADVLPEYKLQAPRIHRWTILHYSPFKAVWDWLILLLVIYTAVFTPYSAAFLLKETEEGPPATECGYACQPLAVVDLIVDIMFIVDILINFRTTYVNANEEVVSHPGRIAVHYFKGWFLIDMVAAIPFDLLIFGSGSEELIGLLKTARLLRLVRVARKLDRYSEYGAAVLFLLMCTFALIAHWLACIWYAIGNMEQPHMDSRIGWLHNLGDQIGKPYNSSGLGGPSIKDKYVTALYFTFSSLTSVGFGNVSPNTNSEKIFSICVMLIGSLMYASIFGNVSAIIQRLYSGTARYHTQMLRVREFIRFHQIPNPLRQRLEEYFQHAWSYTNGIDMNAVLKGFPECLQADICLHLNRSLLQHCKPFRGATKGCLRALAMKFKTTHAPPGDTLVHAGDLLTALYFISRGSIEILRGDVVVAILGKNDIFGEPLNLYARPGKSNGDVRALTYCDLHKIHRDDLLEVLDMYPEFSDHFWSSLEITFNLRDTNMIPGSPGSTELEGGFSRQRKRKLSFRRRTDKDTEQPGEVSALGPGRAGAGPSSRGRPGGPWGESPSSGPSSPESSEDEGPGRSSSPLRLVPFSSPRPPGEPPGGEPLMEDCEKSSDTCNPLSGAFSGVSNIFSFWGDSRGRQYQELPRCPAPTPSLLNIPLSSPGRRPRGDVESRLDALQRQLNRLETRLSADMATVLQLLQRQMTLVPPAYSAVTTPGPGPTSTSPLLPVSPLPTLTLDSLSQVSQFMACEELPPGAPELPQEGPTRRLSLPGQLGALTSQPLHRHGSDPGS
The mark [12] stands for this setting: male, Sprague-Dawley, rat, plasma.

T1 sequence (P37023 22-503): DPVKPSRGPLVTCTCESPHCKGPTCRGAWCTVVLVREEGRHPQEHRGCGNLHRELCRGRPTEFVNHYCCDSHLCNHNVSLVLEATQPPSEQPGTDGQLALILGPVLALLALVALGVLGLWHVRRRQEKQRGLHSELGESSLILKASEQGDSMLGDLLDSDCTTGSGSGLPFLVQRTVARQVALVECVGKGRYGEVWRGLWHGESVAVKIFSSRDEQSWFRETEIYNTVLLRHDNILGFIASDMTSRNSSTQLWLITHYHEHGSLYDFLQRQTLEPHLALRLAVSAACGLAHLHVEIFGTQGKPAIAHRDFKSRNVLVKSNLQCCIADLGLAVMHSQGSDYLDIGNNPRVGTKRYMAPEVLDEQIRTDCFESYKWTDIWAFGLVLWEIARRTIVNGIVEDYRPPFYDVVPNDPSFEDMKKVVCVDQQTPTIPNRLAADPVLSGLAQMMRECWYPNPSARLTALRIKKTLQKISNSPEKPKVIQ
T5 sequence (Q13705 19-512): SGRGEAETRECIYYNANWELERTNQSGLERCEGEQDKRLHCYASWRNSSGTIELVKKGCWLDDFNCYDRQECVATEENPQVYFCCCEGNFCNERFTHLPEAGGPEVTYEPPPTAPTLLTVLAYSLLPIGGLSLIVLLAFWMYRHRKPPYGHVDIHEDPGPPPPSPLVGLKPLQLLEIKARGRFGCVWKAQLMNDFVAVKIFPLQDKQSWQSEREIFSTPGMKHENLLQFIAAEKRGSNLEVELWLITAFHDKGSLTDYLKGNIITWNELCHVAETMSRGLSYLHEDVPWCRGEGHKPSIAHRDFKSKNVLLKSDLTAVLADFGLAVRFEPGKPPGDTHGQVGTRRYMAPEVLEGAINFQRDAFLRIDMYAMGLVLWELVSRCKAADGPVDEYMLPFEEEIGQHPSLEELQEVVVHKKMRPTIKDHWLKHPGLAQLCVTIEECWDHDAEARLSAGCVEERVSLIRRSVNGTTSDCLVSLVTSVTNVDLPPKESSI
T7 sequence (Q04771 21-509): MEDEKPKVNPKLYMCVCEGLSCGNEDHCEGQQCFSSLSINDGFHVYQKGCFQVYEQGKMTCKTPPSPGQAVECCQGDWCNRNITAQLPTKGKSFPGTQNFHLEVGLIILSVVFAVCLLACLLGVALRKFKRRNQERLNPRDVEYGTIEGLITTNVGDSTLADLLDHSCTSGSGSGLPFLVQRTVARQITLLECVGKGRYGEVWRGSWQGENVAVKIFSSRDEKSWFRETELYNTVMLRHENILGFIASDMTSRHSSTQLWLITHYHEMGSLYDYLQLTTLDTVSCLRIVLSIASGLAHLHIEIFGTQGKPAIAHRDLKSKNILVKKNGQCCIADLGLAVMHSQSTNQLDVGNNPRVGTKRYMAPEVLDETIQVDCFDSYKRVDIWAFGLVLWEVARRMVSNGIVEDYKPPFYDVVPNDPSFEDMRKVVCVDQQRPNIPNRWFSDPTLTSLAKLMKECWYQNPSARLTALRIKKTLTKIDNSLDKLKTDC
Description for hERG potassium channel: clamp (Eurofins, Celle L’Evescault, France) on CHO -K1 cells. The tail current amplitude, induced by a one
second test pulse to -40 mV after a two second pulse to +20 mV, was measured before and aft er drug incubation

As for `Cc1cccc(-c2nn3c(c2-c2ccnc4ccc(C(N)=O)cc24)CCC3)n1` [galunisertib], the CL/F in data set [1] was 402 mL/min/kg. Also, the Efficacious murine dose in [2] is reported as 720–800 mg/kg twice daily (BID). Also, the pKd at ALK1 (ACVRL1) [3] was 4.60; on ALK3 (BMPR1A) [4] it was 4.77; on ALK4 (ACVR1B) (listed as Galunisertib), 7.11; at ALK4 (ACVR1B), approximately 7.11; on ALK6 (BMPR1B), 6.33; on ACVR2B [5], 6.16. In addition, on TGFBR2, the pKd is 6.68.
As to `Cc1cccc(-c2[nH]c(CNc3ccccc3F)nc2-c2ccc3ncnn3c2)n1` [vactosertib, N -((4-([1,2,4]Triazolo[1,5-a]Pyridin-6-Yl)-5-(6-Methylpyridin-2-Yl)-1 H -Imidazole-2-Yl)Methyl)-2-Fluoroaniline], in data set [6], the AUCinf is reported as 1426 ng·h/mL, the Cmax is listed as 1620 ng/mL and the T1/2 is 2.5 h.
On to `Cc1cccc(-c2nn3c(c2-c2ccnc4ccc(O)cc24)CCC3)n1` [HYL001, 4-(2-(6-Methylpyridin-2-yl)-5,6-dihydro-4H-pyrrolo[1,2-b]pyrazol-3-yl)quinolin-6-ol], for which the negative logarithm of the Kd (pKd) on ACVR2B [7] is 7.00. The pKd on ALK1 (ACVRL1) [8] was 4.96. Also, the pKd on ALK2 (ACVR1) is 5.12. Also, at ALK3 (BMPR1A) [9], the pKd is 5.16. Besides, the “Inhibition of binding to any safety panel target” value in data set [10] is not above 50%. For the same compound, the “Inhibition of any of the tested enzymatic activities” value in the data set on panel of enzymes is not above 50%. In [11] (male, Sprague-Dawley, rat, plasma, po), this compound gave a half-life of approximately 5 h. For the same compound, in [11] (setting [12]), the AUC(0-inf) was determined as 22000 ng·h/mL, the area under the curve AUC(0-t) was determined as 21600 ng·h/mL, the apparent clearance CL/F was 53.8 mL/min/kg and the Cmax was determined as 8540 ng/mL. The Tmax in [11] (setting [12]) was 0.67 h. In addition, in [11] (male, Sprague-Dawley, rat, plasma, read-out: Vss/F), the Vd/F turned out to be 10.8 L/kg. In addition, the T1/2 in data set [11] was found to be 4.8 h. For the same compound, on hERG potassium channel, at 3.7 µM the inhibition was 1.8%, the inhibition at 11.1 µM amounted to 8.4% and at 33.3 µM the inhibition was 22.8%.

As a reminder, the CL/F is clearance divided by bioavailability, as obtained after extravascular dosing. In general, pKd refers to −log10 of the Kd, conventionally taken in molar units. Usually Cmax stands for the peak of the concentration-time curve. The half-life is the time needed for the level to fall by half in the phase considered. In general, AUC(0-inf) refers to the area under the concentration-time curve extrapolated to infinity. For orientation: AUC(0-t) means exposure summed from dosing to a finite time, without extrapolation to infinity. What is called Tmax is the time from dosing to the highest level. As usually defined, the inhibition is how much of the control response was suppressed.
